Measurements reported in EP0104070A2, “Fungicidal N-phenylcarbamates” (priority 1982, dated 1984).
Like-named read-outs stand apart in the source and are kept apart here.

Assays:
[1] = system: drug-sensitive strain of Botrytis cinerea; assay: Preventive effect on gray mold of cucumber (Experiment 5), drug-sensitive strain; details: cucumber seedlings, spray, mycelial disks, 20°C for 3 days
Procedure: (§2) The disease severity was calculated according to the following equation: [formula]
(§3) The prevention value was calculated according to the following equation: [formula]
(§4) Preventive effect on gray mold of cucumber (Botrytis cinerea):-Plastic pots of 90 ml volume was filled with sandy soil, and seeds of cucumber (var: Sagami-hanjiro) were sowed therein. Cultivation was carried out in a greenhouse for 8 days to obtain cucumber seedlings expanding cotyledons. Onto the resulting seedlings, the test compound formulated in emulsifiable concentrate or wettable powder and diluted with water was sprayed at a rate of 10 ml per pot. […] After the plants were infected by incubating under high humidity at 20°C for 3 days, the rates of disease severity were observed.

[2] = system: drug-resistant strain of Botrytis cinerea; assay: Preventive effect on gray mold of cucumber (Experiment 5), drug-resistant strain; details: cucumber seedlings, spray, mycelial disks, 20°C for 3 days
Procedure: as §2, §3, §4

[3] = system: drug-sensitive strain of Cercospora beticola; details: in Beta vulgaris, 240 h, read-out: Prevention value when inoculated with drug-sensitive strain (%)
Procedure: as §2, §3
(§5) Preventive effect on cercospora leaf spot of sugarbeet (Cercospora beticola):-A flower pot of 90 ml volume was filled with sandy soil, and seeds of sugarbeet (var: Detroit dark red) were sowed therein. Cultivation was carried out in a greenhouse for 20 days. Onto the resulting seedlings, the test compound formulated in emulsifiable concentrate or wettable powder and diluted with water was sprayed at a rate of 10 ml per pot. […] The pot was covered with a polyvinyl chloride sheet to make a condition of high humidity, and cultivation was continued in the greenhouse for 10 days.

[4] = system: drug-resistant strain of Sphaerotheca fuliginea; details: Podosphaera fuliginea, in Cucumis sativus, 240 h, read-out: Prevention value when inoculated with drug-resistant strain (%)
Procedure: (§6) Protective activity test on powdery mildew of cucumber (Sphaerotheca fuliginea):-A flower pot of 90 ml volume was filed with sandy soil, and seeds of cucumber (var: Sagami-hanjiro) were sowed therein. Cultivation was carried out in a greenhouse for 8 days. Onto the resulting seedlings having cotyledons, the test compound formulated in emulsifiable concentrate or wettable powder and diluted with water was sprayed at a rate of 10 ml per pot. […] Ten days thereafter, the infectious state of the plants was observed.
as §2, §3

[5] = system: drug-sensitive strain of Sphaerotheca fuliginea; details: Podosphaera fuliginea, in Cucumis sativus, 240 h, read-out: Prevention value when inoculated with drug-sensitive strain (%)
Procedure: as §6, §2, §3

[6] = system: drug-resistant strain of Cercospora beticola; details: in Beta vulgaris, 240 h, read-out: Prevention value when inoculated with drug-resistant strain (%)
Procedure: as §2, §3, §5

[7] = system: drug-resistant strain of Mycosphaerella melonis; details: cucumber seedlings, spray, 200 ppm active ingredient, 25°C for 4 days
Procedure: as §2, §3
(§7) Preventive effect on gummy stem blight of cucumber (Mycosphaerella melonis):-Plastic pots of 90 ml volume was filled with sandy soil, and seeds of cucumber (var: Sagami-hanjiro) were sowed therein. Cultivation was carried out in a greenhouse for 8 days to obtain cucumber seedlings expanding cotyledons. Onto the resulting seedlings, the test compound formulated in emulsifiable concentrate or wettable powder and diluted with water was sprayed at a rate of 10 ml per pot. […] After the plants were infected by incubating under high humidity at 25°C for 4 days, the rates of disease severity were observed.

[8] = system: peanut (var: Chiba hanryusei); assay: Phytotoxicity to crop plants (Experiment 9), peanut; format: in vivo; design: key: -: No abnormality; +: Abnormality due to phytotoxicity observed in a part of crop plants; ++: Abnormality due to phytotoxicity observed in entire crop plants; +++: Crop plants withered due to phytotoxicity; details: spray, 1000 ppm active ingredient, 10 days
Source text: (§1) Phytotoxicity to crop plants:-

apple (var: Kogyoku) = assay: Phytotoxicity to crop plants (Experiment 9), apple; format: in vivo; design: key: -: No abnormality; +: Abnormality due to phytotoxicity observed in a part of crop plants; ++: Abnormality due to phytotoxicity observed in entire crop plants; +++: Crop plants withered due to phytotoxicity
Source text: as §1

[9] = system: wheat (var: Norin No. 61); assay: Phytotoxicity to crop plants (Experiment 9), wheat; format: in vivo; design: key: -: No abnormality; +: Abnormality due to phytotoxicity observed in a part of crop plants; ++: Abnormality due to phytotoxicity observed in entire crop plants; +++: Crop plants withered due to phytotoxicity
Source text: as §1

[10] = system: drug-sensitive strain of Mycosphaerella melonis; details: cucumber seedlings, spray, 200 ppm active ingredient, 25°C for 4 days
Procedure: as §2, §3, §7

Pyricularia oryzae = format: in vivo
[11] = system: drug-resistant strain of Cercospora arachidicola; details: peanut seedlings, spray, 10 days
Procedure: as §2, §3
(§8) Preventive effect on brown leaf-spot of peanut (Cercospora arachidicola):-
(§9) A plastic pot of 90 ml volume was filled with sandy soil, and seeds of peanut (var: Chiba hanryusei) were sowed therein. Cultivation was carried out in a greenhouse for 14 days. Onto the resulting seedlings, the test compound formulated in emulsifiable concentrate or wettable powder and diluted with water was sprayed at a rate of 10 ml per pot. […] The resulting plants were covered with a polyvinyl chloride sheet to make a humide condition and cultivated in the greenhouse for 10 days.

[12] = system: drug-sensitive strain of Cercospora arachidicola; details: peanut seedlings, spray, 10 days
Procedure: as §2, §3, §8, §9

[13] = system: drug-sensitive strain of Penicillium italicum; assay: Preventive effect on green mold of orange (Experiment 7), drug-sensitive strain; details: orange fruits immersed for 1 minute, 200 ppm active ingredient, 24 days
[14] = system: drug-sensitive strain of Venturia nashicola; assay: Preventive effect on scab of pear (Experiment 3), drug-sensitive strain; details: pear seedlings, spray, 200 ppm active ingredient
Procedure: as §2, §3
(§10) Preventive effect on scab of pear (Venturia nashicola):-
(§11) A plastic pot of 90 ml volume was filled with sandy soil, and seeds of pear (var: Chojuro) were sowed therein. Cultivation was carried out in a greenhouse for 20 days. Onto the resulting seedlings, the test compound formulated in emulsifiable concentrate or wettable powder and diluted with water was sprayed at a rate of 10 ml per pot. […] The resulting plants were placed at 20°C under a condition of high humidity for 3 days and then at 20°C under irradiation with a fluorescent lamp for 20 days.

[15] = system: drug-resistant strain of Venturia nashicola; assay: Preventive effect on scab of pear (Experiment 3), drug-resistant strain; details: pear seedlings, spray, 200 ppm active ingredient
Procedure: as §2, §3, §10, §11

[16] = system: drug-resistant strain of Penicillium italicum; assay: Preventive effect on green mold of orange (Experiment 7), drug-resistant strain; details: orange fruits immersed for 1 minute, 200 ppm active ingredient, 24 days
[17] = spray, 1000 ppm active ingredient, 10 days

C=CCOC(=O)c1cc(NC(=S)OC)cc(COC)c1OCC [Compound No. 25, (3-methoxymethyl-4-ethoxy-5-allyloxycarbonyl)thiocarbanilic acid O-methyl ester]
Prevention value when inoculated with drug-sensitive strain (%) ([1]; 500 ppm active ingredient): 0%
Prevention value when inoculated with drug-resistant strain (%) ([2]; 500 ppm active ingredient): 100%

C#CC(C)OC(=O)Nc1cccc(Cl)c1 (centres unmarked) [Chlorbufam, 1-methyl-2-propynyl N-(3-chlorophenyl)carbamate]
pest or weed control at 200 ppm [3]: 0%
pest or weed control at 200 ppm [4]: 0%
pest or weed control at 200 ppm [5]: 0%
pest or weed control at 200 ppm [6]: 0%

CCOc1c(Cl)cc(NC(=S)OC(C)C)cc1COC [Compound No. 14, (3-chloro-4-ethoxy-5-methoxymethyl)thiocarbanilic acid O-isopropyl ester]
pest or weed control at 500 ppm [3]: 0%
Prevention value when inoculated with drug-resistant strain (%) [7]: 100%
Phytotoxicity Peanut [8]: -
Phytotoxicity Apple (apple (var: Kogyoku); [17]): -
pest or weed control at 200 ppm [4]: 100%
Prevention value when inoculated with drug-sensitive strain (%) ([1]; 200 ppm active ingredient): 0%
Prevention value when inoculated with drug-resistant strain (%) ([2]; 200 ppm active ingredient): 100%
Phytotoxicity Wheat [9, 17]: -
Prevention value when inoculated with drug-sensitive strain (%) [10]: 0%
pest or weed control at 200 ppm [5]: 0%
pest or weed control at 500 ppm [6]: 100%

CCOc1cc(NC(=S)OC)cc(C=NOC)c1OCC [Compound No. 29, (3,4-diethoxy-5-methoxyiminomethyl)thiocarbanilic acid O-methyl ester]
Prevention value when inoculated with drug-sensitive strain (%) ([1]; 500 ppm active ingredient): 0%
Prevention value when inoculated with drug-resistant strain (%) ([2]; 500 ppm active ingredient): 100%

CCOc1c(Cl)cc(NC(=S)OC)cc1COC [Compound No. 13]
Prevention value when inoculated with drug-resistant strain (%) [7]: 100%
Prevention value (%) (Pyricularia oryzae; rice seedlings of 3-leaf stage, spray, 1000 ppm active ingredient, 28°C for 3 days): 97%
Phytotoxicity Peanut [8]: -
Prevention value when inoculated with drug-resistant strain (%) ([11]; 200 ppm active ingredient): 97%
Phytotoxicity Apple (apple (var: Kogyoku); [17]): -
Prevention value when inoculated with drug-sensitive strain (%) ([1]; 200 ppm active ingredient): 0%
Prevention value when inoculated with drug-resistant strain (%) ([2]; 200 ppm active ingredient): 100%
Phytotoxicity Wheat [9, 17]: -
Prevention value when inoculated with drug-sensitive strain (%) [10]: 0%
Prevention value when inoculated with drug-sensitive strain (%) ([12]; 200 ppm active ingredient): 0%

O=C(Nc1cccc(Cl)c1)OCCCl [CEPC]
pest or weed control at 200 ppm [3]: 0%
Phytotoxicity Peanut [8]: ++
Phytotoxicity Apple (apple (var: Kogyoku); [17]): ++
pest or weed control at 200 ppm [4]: 0%
Phytotoxicity Wheat [9, 17]: -
pest or weed control at 200 ppm [5]: 0%
pest or weed control at 200 ppm [6]: 0%

CC(C)OC(=O)Nc1ccccc1 [Propham, isopropyl N-phenylcarbamate]
pest or weed control at 200 ppm [3]: 0%
pest or weed control at 200 ppm [4]: 0%
pest or weed control at 200 ppm [5]: 0%
pest or weed control at 200 ppm [6]: 0%

CCCCNC(=O)n1c(NC(=O)OC)nc2ccccc21 [Benomyl, methyl 1-(butylcarbamoyl)benzimidazol-2-ylcarba-mate]
Prevention value when inoculated with drug-sensitive strain (%) [13]: 100%
pest or weed control at 200 ppm [3]: 100%
Prevention value when inoculated with drug-resistant strain (%) [7]: 0%
Prevention value when inoculated with drug-resistant strain (%) ([11]; 200 ppm active ingredient): 0%
Prevention value when inoculated with drug-sensitive strain (%) [14]: 100%
pest or weed control at 200 ppm [4]: 0%
Prevention value when inoculated with drug-sensitive strain (%) ([1]; 200 ppm active ingredient): 100%
Prevention value when inoculated with drug-resistant strain (%) ([2]; 200 ppm active ingredient): 0%
Prevention value when inoculated with drug-sensitive strain (%) [10]: 100%
pest or weed control at 200 ppm [5]: 100%
Prevention value when inoculated with drug-resistant strain (%) [15]: 0%
pest or weed control at 200 ppm [6]: 0%
Prevention value when inoculated with drug-sensitive strain (%) ([12]; 200 ppm active ingredient): 100%
Prevention value when inoculated with drug-resistant strain (%) [16]: 0%

COC(=O)Nc1ccc(Cl)c(Cl)c1 [Swep]
Phytotoxicity Peanut [8]: +
Phytotoxicity Apple (apple (var: Kogyoku); [17]): ++
Phytotoxicity Wheat [9, 17]: ++

COC(=O)Nc1nc2ccccc2[nH]1 [Carbendazim, methyl benz-imidazol-2-ylcarbamate]
pest or weed control at 200 ppm [3]: 100%
pest or weed control at 200 ppm [4]: 0%
pest or weed control at 200 ppm [5]: 100%
pest or weed control at 200 ppm [6]: 0%

O=C(Nc1cccc(Cl)c1)OCC#CCCl
pest or weed control at 200 ppm [3]: 0%
Phytotoxicity Peanut [8]: ++
Phytotoxicity Apple (apple (var: Kogyoku); in vivo): ++
pest or weed control at 200 ppm [4]: 25%
Phytotoxicity Wheat ([9]; in vivo): -
pest or weed control at 200 ppm [5]: 0%
pest or weed control at 200 ppm [6]: 34%

COC(=O)NC(=S)Nc1ccccc1NC(=S)NC(=O)OC [Thiophanate-methyl, 1,2-bis(3-methoxycarbonyl-2-thioureido)benzene]
Prevention value when inoculated with drug-sensitive strain (%) [13]: 100%
pest or weed control at 200 ppm [3]: 100%
Prevention value when inoculated with drug-resistant strain (%) [7]: 0%
Prevention value when inoculated with drug-resistant strain (%) ([11]; 200 ppm active ingredient): 0%
Prevention value when inoculated with drug-sensitive strain (%) [14]: 100%
pest or weed control at 200 ppm [4]: 0%
Prevention value when inoculated with drug-sensitive strain (%) ([1]; 200 ppm active ingredient): 100%
Prevention value when inoculated with drug-resistant strain (%) ([2]; 200 ppm active ingredient): 0%
Prevention value when inoculated with drug-sensitive strain (%) [10]: 100%
pest or weed control at 200 ppm [5]: 100%
Prevention value when inoculated with drug-resistant strain (%) [15]: 0%
pest or weed control at 200 ppm [6]: 0%
Prevention value when inoculated with drug-sensitive strain (%) ([12]; 200 ppm active ingredient): 100%
Prevention value when inoculated with drug-resistant strain (%) [16]: 0%

CCOc1c(C)cc(NC(=S)OCCF)cc1C [Compound No. 9]
Prevention value when inoculated with drug-sensitive strain (%) [13]: 0%
pest or weed control at 200 ppm [3]: 0%
Prevention value when inoculated with drug-resistant strain (%) [7]: 94%
Phytotoxicity Peanut [8]: -
Prevention value when inoculated with drug-resistant strain (%) ([11]; 500 ppm active ingredient): 100%
Phytotoxicity Apple (apple (var: Kogyoku); [17]): -
pest or weed control at 200 ppm [4]: 100%
Prevention value when inoculated with drug-sensitive strain (%) ([1]; 200 ppm active ingredient): 0%
Prevention value when inoculated with drug-resistant strain (%) ([2]; 200 ppm active ingredient): 100%
Phytotoxicity Wheat [9, 17]: -
Prevention value when inoculated with drug-sensitive strain (%) [10]: 0%
pest or weed control at 200 ppm [5]: 0%
pest or weed control at 200 ppm [6]: 100%
Prevention value when inoculated with drug-sensitive strain (%) ([12]; 500 ppm active ingredient): 0%
Prevention value when inoculated with drug-resistant strain (%) [16]: 94%

CC(C)OC(=O)Nc1cccc(Cl)c1 [Chlorpropham, isopropyl N-(3-chlorophenyl)carbamate]
pest or weed control at 200 ppm [3]: 0%
pest or weed control at 200 ppm [4]: 0%
pest or weed control at 200 ppm [5]: 0%
pest or weed control at 200 ppm [6]: 0%

c1ccc2[nH]c(-c3cscn3)nc2c1 [Thiabendazole, 2-(4-thiazolyl)benzimidazole]
Prevention value when inoculated with drug-sensitive strain (%) ([1]; 200 ppm active ingredient): 100%
Prevention value when inoculated with drug-resistant strain (%) ([2]; 200 ppm active ingredient): 0%

CCOP(=O)(Sc1ccccc1)Sc1ccccc1 [Edifenphos]
Prevention value (%) (Pyricularia oryzae; in vivo): 97%
